Results from patent publication US4863963A, “Novel cinnamoylamide derivatives” (Ono Pharmaceutical Co., Ltd., priority 1987, dated 1989).

Target: 5α-reductase
Test: Inhibitory activity on 5α-reductase in vitro (conversion of [4-C^14]-testosterone to dihydrotestosterone)
Format: biochemical
Conditions: male rat prostate enzyme, 60 mins at 37° C., pH 7.4; compounds of the present invention
Description: Inhibitory activity on 5-reductase in vitro
The test was carried out with reference to the method of J. Shimazaki et al [See Endocrinol, Japon., 18, 179 (1971)).]
Male rat's prostate (4 g) was homogenized with its triple volume of 0.1M HEPES buffer (PH 7.4) including 0.25M cane sugar and was centrifuged at 3000 r.p.m. for 10 mins.
The precipitate was suspended into the buffer solution described above (10 ml), and the suspension was centrifuged at 3000 r.p.m for 5 mins. The resulting precipitate was suspended in the buffer solution(3 ml) described above and was used as a sauce of enzyme.
A reaction mixture (total volume 0.1 ml) of [4-C^14 ]-testosterone (1.5 n mol, 1.5×10^3 cpm), NADPH (0.5 μmol), enzyme solution (0.03 ml) described above and several kinds of concentration of the compounds in the present invention was incubated for 60 mins at 37° C. Enzyme reaction was quenched by addition of a mixture (0.4 ml) of chloroform and methanol (1:2), and the mixture was centrifuged at 2000 r.p.m for 3 mins. The supernatant (50 μl) was spotted on silica gel thin layer plate. The spot on the plate was developed with a mixture of chloroform, methanol and acetic acid (99.2:0. 6:0.2). Radioactivity of dihydrotestosteron generated on plate was measured by TLC scanner of radio-autography and inhibitory ratio was calculated.

Row | SMILES | IC50 [µM]
1 | CCCCCOc1c(Cl)cc(/C(C)=C/C(=O)Nc2ccccc2OCCCC(=O)O)cc1Cl [Example 1, 4-[2-(3,5-dichloro-4-pentyloxy-β-methylcinnamoylamino)phenoxy]butanoic acid] | 0.09
2 | CCCCCOc1c(OC)cc(/C(C)=C/C(=O)Nc2ccccc2OCCCC(=O)O)cc1OC [Example 1-1, 4-[2-(3,5-dimethoxy-4-pentyloxy-β-methylcinnomoylamino)phenoxyl] butanoic acid] | 1.6
3 | CCCCCOc1cc(/C(C)=C/C(=O)Nc2ccccc2OCCCC(=O)O)cc(OCCCCC)c1OCCCCC [Example 1-2] | 1.8
4 | CCCCCOc1c(C)cc(/C(C)=C/C(=O)Nc2ccccc2OCCCC(=O)O)cc1C [Example 1-3, 4-[2-(3,5-dimethyl-4-pentyloxy-β-methylcinnamoylamino)phenoxy] butanoic acid] | 2.1
5 | COc1c(C(C)(C)C)cc(/C(C)=C/C(=O)Nc2ccccc2OCCCC(=O)O)cc1C(C)(C)C [Example 1-4, 4-[2-(3,5-di-tert-butyl-methoxy-β-methylcinnamoylamino)phenoxy] butanoic acid] | 1
6 | CCCCCOc1ccc(/C(C)=C/C(=O)Nc2ccccc2OCCCC(=O)O)c(Cl)c1Cl [Example 1-5, 4-[2-(2,3-dichloro-4-pentyloxy-β-methylcinnomoylamino)phenoxy] butanoic acid] | 5.6
7 | CCCCOc1c(Cl)cc(/C(C)=C/C(=O)Nc2ccccc2OCCCC(=O)O)cc1Cl [Example 1-6, 4-[2-(3,5-dichloro-4-butoxy-β-methylcinnamoylamino)phenyoxy] butanoic acid] | 1.6
8 | CCCOc1cc(/C(C)=C/C(=O)Nc2ccccc2OCCCC(=O)O)cc(OCCC)c1OCCC [Example 1-7, 4-[2-(3,4,5-tripropoxy-β-methylcinnamoylamino)phenoxy] butanoic acid] | 3.3
9 | CCCCOc1cc(/C(C)=C/C(=O)Nc2ccccc2OCCCC(=O)O)cc(OCCCC)c1OCCCC [Example 1-8] | 1.7
10 | CCOc1cc(/C(C)=C/C(=O)Nc2ccccc2OCCCC(=O)O)cc(OCC)c1OCC [Example 1-9, 4-[2-(3,4,5-triethoxy-β-methylcinnamoylamino)phenoxy] butanoic acid] | 9.7
11 | C/C(=C\C(=O)Nc1ccccc1OCCCC(=O)O)c1ccc(CC(C)C)cc1 [Example 1-10, 4-[2-(4-isobutyl-β-methylcinnamoylamino)phenoxy] butanoic acid] | 0.11
12 | CCCCc1ccc(/C(C)=C/C(=O)Nc2ccccc2OCCCC(=O)O)cc1 [Example 1-11, 4-[2-(4-butyl-β-methylcinnomoylamino)phenoxy] butanoic acid] | 0.2
13 | CCCc1ccc(/C(C)=C/C(=O)Nc2ccccc2OCCCC(=O)O)cc1 [Example 1-12, 4-[2-(4-propyl-β-methylcinnamoylamino)phenoxy] utanoic acid] | 0.26
14 | CCCCOc1ccc(/C(C)=C/C(=O)Nc2ccccc2OCCCC(=O)O)cc1 [Example 1-13, 4-[2-(4-butoxy-β-methylcinnamoylamino)phenoxy] utanoic acid] | 0.38
15 | CCC(C)c1ccc(/C(C)=C/C(=O)Nc2ccccc2OCCCC(=O)O)cc1 (stereo not drawn) [Example 1-14, 4-[2-(4-sec-butyl-β-methylcinnomoylamino)phenoxy] butanoic acid] | 0.28
16 | CCCCCOc1cc(/C(C)=C/C(=O)Nc2ccccc2OCCCC(=O)O)c([N+](=O)[O-])cc1OCCCCC [Example 1-15, 4-[2-(2-nitro-4,5-dipentyloxy-β-methylcinnomoylamino)phenoxy] butanoic acid] | 2.2
17 | CCCCCOc1cc(/C=C(\C)C(=O)Nc2ccccc2OCCCC(=O)O)cc(OCCCCC)c1OCCCCC [Example 1-16] | 0.53
